This note sets out measurements from ChEMBL document CHEMBL3286286, “2-(2-Arylphenyl)benzoxazole As a Novel Anti-Inflammatory Scaffold: Synthesis and Biological Evaluation” (ACS Med Chem Lett, 2014).

Assay [1] is described as follows: Selectivity for human recombinant COX2 to ovine COX1.
Assay [2] addresses T1, Prostaglandin G/H synthase 2 (Homo sapiens) (UniProt P35354).
T1 sequence (whole entry): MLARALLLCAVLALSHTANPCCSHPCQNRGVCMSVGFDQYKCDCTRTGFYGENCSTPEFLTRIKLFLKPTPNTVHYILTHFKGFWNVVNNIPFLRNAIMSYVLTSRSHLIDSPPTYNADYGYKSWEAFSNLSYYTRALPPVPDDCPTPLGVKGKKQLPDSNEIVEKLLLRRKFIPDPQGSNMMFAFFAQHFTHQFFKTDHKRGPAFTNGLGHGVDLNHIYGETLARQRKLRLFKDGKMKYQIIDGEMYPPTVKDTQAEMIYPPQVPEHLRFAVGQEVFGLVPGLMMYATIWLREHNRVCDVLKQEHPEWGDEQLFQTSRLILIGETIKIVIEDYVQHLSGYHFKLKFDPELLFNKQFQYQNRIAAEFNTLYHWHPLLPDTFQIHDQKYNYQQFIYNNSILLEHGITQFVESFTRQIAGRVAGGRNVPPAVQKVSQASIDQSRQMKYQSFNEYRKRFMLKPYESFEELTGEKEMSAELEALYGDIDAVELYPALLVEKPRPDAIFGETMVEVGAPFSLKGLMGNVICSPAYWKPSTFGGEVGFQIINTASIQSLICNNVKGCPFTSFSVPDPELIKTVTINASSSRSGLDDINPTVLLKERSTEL
As to conditions: at 10 µM.
Description: Inhibition of human recombinant COX2 using arachidonic acid as substrate at 10 uM

For assay [3], the target named is T2, Prostaglandin G/H synthase 1 (Ovis aries) (UniProt P05979).
T2 sequence (whole entry): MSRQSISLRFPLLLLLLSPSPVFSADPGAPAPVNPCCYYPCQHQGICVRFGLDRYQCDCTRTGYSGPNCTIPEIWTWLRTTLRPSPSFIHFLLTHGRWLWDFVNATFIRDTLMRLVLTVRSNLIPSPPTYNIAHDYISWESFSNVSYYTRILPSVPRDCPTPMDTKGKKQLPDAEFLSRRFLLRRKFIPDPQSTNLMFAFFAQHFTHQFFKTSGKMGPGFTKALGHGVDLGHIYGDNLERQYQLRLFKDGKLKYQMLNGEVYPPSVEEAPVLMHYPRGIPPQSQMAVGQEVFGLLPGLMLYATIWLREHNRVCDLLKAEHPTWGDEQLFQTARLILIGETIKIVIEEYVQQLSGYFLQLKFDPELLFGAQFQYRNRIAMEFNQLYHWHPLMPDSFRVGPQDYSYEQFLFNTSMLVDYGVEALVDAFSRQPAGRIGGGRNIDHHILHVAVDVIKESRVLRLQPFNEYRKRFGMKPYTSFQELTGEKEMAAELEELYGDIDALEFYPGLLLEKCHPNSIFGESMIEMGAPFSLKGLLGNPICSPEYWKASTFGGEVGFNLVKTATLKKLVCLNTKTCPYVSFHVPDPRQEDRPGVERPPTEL
The assay is described as follows: Inhibition of ovine COX1 using arachidonic acid as substrate at 10 uM.

The test system of assay [4] is Rattus norvegicus. The assay is described as follows: Antiinflammatory activity in Wistar albino rat assessed as reduction in carrageenan-induced hind paw volume at 25 mg/kg, ip administered 10 mins after carrageenan-challenge measured up to 3 hrs. The assay is classed as functional. As to conditions: route intraperitoneal. A general note: Carrageenan injected into the paw causes an acute inflammation.

Assay [5] deals with Rattus norvegicus. The assay is described as follows: Antiinflammatory activity in Wistar albino rat assessed as reduction in carrageenan-induced hind paw volume at 12.5 mg/kg, ip administered 10 mins after carrageenan-challenge measured up to 3 hrs. It is filed as functional. As to conditions: route intraperitoneal.
Assay [6] can be described thus: Selectivity index, ratio of IC50 for ovine COX1 to IC50 for human recombinant COX2.
The target of assay [7] is T3, Prostaglandin G/H synthase 1 (Ovis aries, UniProt P05979).
T3 sequence (P05979 whole entry): T2 sequence (whole entry)
The assay is described as follows: Inhibition of ovine COX1 using arachidonic acid as substrate.

Assay [8] has as its target T4, Prostaglandin G/H synthase 2 (Homo sapiens, UniProt P35354).
T4 sequence (P35354 whole entry): T1 sequence (whole entry)
The experiment in a line: Inhibition of human recombinant COX2 using arachidonic acid as substrate.

As usually defined, the inhibition is the relative decrease from the control value, in per cent. For the compound `O=Cc1ccc(-c2ccccc2-c2nc3ccccc3o2)cc1`, the Selectivity ratio in assay [1] was determined as 8.81. The figures for the inhibition in assay [2] and in assay [3] were 58% and 6.58%, respectively.

For the compound `COc1ccc(-c2ccccc2-c2nc3ccccc3o2)cc1OC`, the Selectivity ratio in assay [1] amounted to 1.49. Also, the figures for the inhibition in assay [2] and in assay [3] were 86.6% and 58.2%, respectively.

On to `FC(F)(F)c1ccc(-c2ccccc2-c2nc3ccccc3o2)cc1`, for which, in assay [1], the Selectivity ratio worked out at 3.38. For the same compound, the figures for the inhibition in assay [2] and in assay [3] were 11.7% and 3.45%, respectively.

In general, inhibition in vivo refers to the change of the read-out against control, counted positive when it falls. Turning to `O=C(O)Cc1ccccc1Nc1c(Cl)cccc1Cl` [DICLOFENAC], in the assay with Rattus norvegicus [4], the inhibition in vivo at 25 mg/kg came out at 84.6%. Moreover, the inhibition in vivo at 12.5 mg/kg with Rattus norvegicus [5] was found to be 67.3%.

For `Clc1cc(-c2ccccc2-c2nc3ccccc3o2)ccc1OCc1ccccc1`, the Selectivity ratio in assay [1] was determined as 1.65. Also, the inhibition worked out at 17% in assay [2] and 10.3% in assay [3].

Turning to `COc1cccc(-c2ccccc2-c2nc3ccccc3o2)c1OC`, the Selectivity ratio in assay [1] was 0.8. Besides, the values for the inhibition in assay [2] and in assay [3] were 59.9% and 74.9%, respectively.

With `CC(C)Oc1ccc(-c2ccccc2-c2nc3ccccc3o2)cc1Cl`, the Selectivity ratio in assay [1] came to 15.5. Also, the inhibition in assay [2] was found to be 33.9%; in assay [3] it was 2.19%.

Consider `COc1ccc(-c2ccccc2-c2nc3ccccc3o2)cc1OC1CCCC1`, for which, in assay [1], the Selectivity ratio stood at 0.87. The results for the inhibition in assay [2] and in assay [3] were 14.8% and 17.1%, respectively.

For `Cc1ccc(-c2cc(C(F)(F)F)nn2-c2ccc(S(N)(=O)=O)cc2)cc1` [CELECOXIB], the inhibition in vivo at 25 mg/kg in the assay on Rattus norvegicus [4] was 74.6%. Moreover, in the assay on Rattus norvegicus [5], the inhibition in vivo at 12.5 mg/kg was 60.6%.

As to `Fc1ccc(-c2ccccc2-c2nc3ccccc3o2)cc1`, the Selectivity ratio in assay [1] turned out to be 1.57. The inhibition came to 8.46% in assay [2] and 1.65% in assay [3].

For `N#Cc1ccc(-c2ccccc2-c2nc3ccccc3o2)cc1`, the Selectivity ratio in assay [1] worked out at 4.83. Moreover, the inhibition worked out at 40.9% in assay [2] and 8.46% in assay [3].

In the case of `c1ccc(-c2ccccc2-c2nc3ccccc3o2)cc1`, the Selectivity ratio in assay [1] was determined as 0.44. In addition, the results for the inhibition in assay [2] and in assay [3] were 10.6% and 24%, respectively.

In the case of `CSc1ccc(-c2ccccc2-c2nc3ccccc3o2)cc1`, the Selectivity ratio in assay [1] amounted to 10.7. Besides, the figures for the inhibition in assay [2] and in assay [3] were 43.5% and 4.07%, respectively.

Usually IC50 stands for the midpoint of a concentration-inhibition curve. Consider `COc1ccc(-c2ccccc2-c2nc3ccccc3o2)cc1Cl`, for which the Ratio IC50 in assay [6] was 69.8. Moreover, the Selectivity ratio in assay [1] turned out to be 12.6. The inhibition in vivo at 25 mg/kg in the assay on Rattus norvegicus [4] is 64.4%. For the same compound, the results for the inhibition in assay [2] and in assay [3] were 81.4% and 6.45%, respectively. Further, the IC50 in assay [7] came to 46.8 µM; in assay [8], 0.67 µM. In the assay on Rattus norvegicus [5], the inhibition in vivo at 12.5 mg/kg was 53.9%.

As to `COc1ccc(-c2ccccc2-c2nc3ccccc3o2)cc1`, the Selectivity ratio in assay [1] came out at 0.78. The results for the inhibition in assay [2] and in assay [3] were 14.8% and 19.1%, respectively.

As for `Oc1ccc(-c2ccccc2-c2nc3ccccc3o2)cc1Cl`, in assay [6], the Ratio IC50 was 113. Also, the Selectivity ratio in assay [1] was 12.6. In the assay with Rattus norvegicus [4], the inhibition in vivo at 25 mg/kg is 82.7%. The inhibition in assay [2] was found to be 94.9%; in assay [3], 7.56%. The IC50 worked out at 46.2 µM in assay [7] and 0.41 µM in assay [8]. The inhibition in vivo at 12.5 mg/kg with Rattus norvegicus [5] was 68.3%.

As to `CS(=O)(=O)c1ccc(-c2ccccc2-c2nc3ccccc3o2)cc1`, the Ratio IC50 in assay [6] was found to be 33.6. Further, in assay [1], the Selectivity ratio is 6.96. The inhibition in vivo at 25 mg/kg in the assay with Rattus norvegicus [4] is 75%. For the same compound, the inhibition was found to be 75.1% in assay [2] and 10.8% in assay [3]. The IC50 in assay [7] came to 45.1 µM; in assay [8] it was 1.34 µM. The inhibition in vivo at 12.5 mg/kg with Rattus norvegicus [5] is 62.5%.
